The values below come from patent publication US20230050070A1, “Antimicrobial Composition” (ATLANTIC TECHNOLOGIECAL UNIVERSITY, priority 2019, published 2023).

Each structure is given as a SMILES string.

The assay deals with various species of microorganism. Description: Well diffusion / Kirby-Bauer test, zones of inhibition. The class given is cell-based. The conditions noted are these: SA and ASA tested alone, without A^3IS. As to the method:
The purpose of the Kirby-Bauer disk diffusion susceptibility test is to determine the sensitivity or resistance of pathogenic aerobic and facultative anaerobic bacteria to various antimicrobial compounds.
Escherichia coli (NCIMB 8545), Staphylococcus aureus (NCIMB 951 and Pseudomonas aeruginosa (NCIMB 8626) are grown on nutrient agar or in nutrient broth for 24 hrs at 37° C.
Candida albicans (NCIMB 3179) and Saccharomyces cerevisiae are grown on sabaroud dextrose agar or in sabaroud dextrose broth for 24 hrs at 37° C.,
Bacterial growth is monitored by measuring the culture optical density (OD) in a spectrophotometer (Anthos 2010) at a wavelength of 620 nm.
Agar plates are inoculated by swabbing overnight culture onto the plate surface. Plates are allowed to stand at room temperature for 15 minutes before use. Wells 8.2 mm diameter are bored into the surface of the agar. A 180 μl sample is placed into each well. The samples diffuse into the agar around the well and are assayed for an ability to produce a zone of inhibition. Plates are incubated for 24, 48 or 72 hrs and zones of inhibition are measured using an Autodata automatic zone reader. The diameter of zones, including the diameter of the well (8.2 mm), is recorded.
Different microbial strains were each plated out according to the above-mentioned methods. […]
In general terms: In agar diffusion tests the substance spreads into inoculated agar from a disc or well.

In the case of `CC(=O)Oc1ccccc1C(=O)O` [ASA, Acetyl salicylic acid], the antimicrobial activity entry is “no discernible activity”.
Turning to `O=C(O)c1ccccc1O` [SA, Salicylic acid], the antimicrobial activity result is “no discernible activity”.
